Experimental data: paper PMC9606955, “In Vitro Activity of Essential Oils Distilled from Colombian Plants against Candida auris and Other Candida Species with Different Antifungal Susceptibility Profiles” (Molecules, 2022)
≈ marks a conversion by molar mass, not a printed value. Values belong to the compound of their own block, whether it stands above or below them.

Legend:
[1] = test system: C. parapsilosis Synlab 406; experiment: MIC, CLSI M27 broth microdilution; assay type: cell-based, Candida parapsilosis; details: C. parapsilosis Synlab 406, EOs and terpenes
From the text: (§1) The fungal strains used in this study were C. albicans ATCC 10231, C. albicans ATCC 64550, C. parapsilosis ATCC 22019, C. tropicalis ATCC 750, C. tropicalis ATCC 200956 (resistant to azoles and AMB), C. glabrata LMDM 34 (resistant to echinocandins), C. metapsilosis MUM 15.12, C. orthopsilosis MUM 17.13, C. lusitaniae MUM 17.08, C. krusei ATCC 6258 (Issatchenkia orientalis ATCC 6258), and C. auris CDC B11903. Additionally, nine clinical isolates were included: C. parapsilosis Synlab 406 (FLC-resistant) and eight C. auris isolates identified by MALDI-TOF MS (Bruker Daltonics, Bremen, Germany) according to Zhao et al.. These yeasts were cultured on Sabouraud Dextrose Agar (SDA; Sigma-Aldrich, St. Louis, MO, USA) for 24 h at 35 °C.
(§2) Antifungal susceptibility testing was performed according to Clinical and Laboratory Standards Institute M27, 4th Edition (CLSI standard M27, 4th Edition). Some modifications were applied for evaluation of the antifungal activity of EOs and terpenes. Initially, a screening was carried out to determine the antifungal activity of the EOs and of commercial terpenes. Stock concentrations of EOs and terpenes were prepared at 512 µg/mL and an inoculum of 2.5 × 10^3 CFU/mL of each yeast was prepared in RPMI 1640-MOPS (Sigma- Aldrich St. Louis, MO, USA). Thereafter, 100 µL of each stock solution of EOs or terpenes was dispensed in 96-well microdilution plates (Corning®, Costar®, NY, USA) and 100 µL of each yeast inoculum was added. […] Microdilution plates were incubated at 35 °C and, after 24 h, the presence or absence of growth was visually checked using a manual mirror viewer and then compared with the amount of growth in the control (no EO or terpene). Compounds able to inhibit yeast growth were tested to determine the minimal inhibitory concentration (MIC) as follows: 100 µL of 10 two-fold dilutions of the EOs or commercial terpenes was dispensed in 96-well microplates and the yeast inoculum was added. Final concentrations of the EOs or terpenes ranged from 0.5 µg/mL to 256 µg/mL. Microdilution plates were incubated at 35 °C for 24 h. MICs were visually determined at the lowest concentration that produced visual inhibition compared to the growth control. The assays were performed at least three times in duplicate on different days. The results were expressed as geometric means (GM) and ranges. As an antifungal susceptibility testing control, the activity of ITC and AMB against the reference strains C. krusei ATCC 6258 and C. parapsilosis ATCC 22019 was evaluated in all experiments following the CLSI standard M27, 4th Edition. It was mandatory that the MIC values remained in the accepted range.

C. lusitaniae MUM 17.08 = experiment: MIC, CLSI M27 broth microdilution; assay type: cell-based, Candida lusitaniae; details: C. lusitaniae MUM 17.08, EOs and terpenes
From the text: as §1, §2

[2] = test system: C. tropicalis ATCC 200956; experiment: MIC, CLSI M27 broth microdilution; assay type: cell-based, Candida tropicalis; details: C. tropicalis ATCC 200956, EOs and terpenes
From the text: as §1, §2

C. krusei ATCC 6258 = experiment: MIC, CLSI M27 broth microdilution; assay type: cell-based, Candida krusei; details: C. krusei ATCC 6258; EOs and terpenes; 24 h; top concentration 256 µg/mL
From the text: as §1, §2

C. auris Ca 13 = experiment: MIC, CLSI M27 broth microdilution; assay type: cell-based, Candida auris; details: C. auris Ca 13, EOs and terpenes
From the text: as §1, §2

C. auris CDC B11903 = experiment: MIC, CLSI M27 broth microdilution; assay type: cell-based, Candida auris; details: C. auris CDC B11903, EOs and terpenes, 24 h, top concentration 256 µg/mL
From the text: as §1, §2

C. auris Ca 46 = experiment: MIC, CLSI M27 broth microdilution; assay type: cell-based, Candida auris; details: C. auris Ca 46, EOs and terpenes, 24 h, top concentration 256 µg/mL
From the text: as §1, §2

C. auris Ca 17 = experiment: MIC, CLSI M27 broth microdilution; assay type: cell-based, Candida auris; details: C. auris Ca 17, EOs and terpenes, 24 h, top concentration 256 µg/mL
From the text: as §1, §2

C. auris Ca 1 = experiment: MIC, CLSI M27 broth microdilution; assay type: cell-based, Candida auris; details: C. auris Ca 1, EOs and terpenes, 24 h, top concentration 256 µg/mL
From the text: as §1, §2

C. auris Ca 45 = experiment: MIC, CLSI M27 broth microdilution; assay type: cell-based, Candida auris; details: C. auris Ca 45, EOs and terpenes, 24 h, top concentration 256 µg/mL
From the text: as §1, §2

C. auris Ca 9 = experiment: MIC, CLSI M27 broth microdilution; assay type: cell-based, Candida auris; details: C. auris Ca 9, EOs and terpenes
From the text: as §1, §2

C. auris Ca 32 = experiment: MIC, CLSI M27 broth microdilution; assay type: cell-based, Candida auris; details: C. auris Ca 32, EOs and terpenes
From the text: as §1, §2

C. auris Ca 41 = experiment: MIC, CLSI M27 broth microdilution; assay type: cell-based, Candida auris; details: C. auris Ca 41, EOs and terpenes, 24 h, top concentration 256 µg/mL
From the text: as §1, §2

Candida spp. [3] = experiment: MIC, CLSI M27 broth microdilution, all Candida spp. of Tables 3 and 4 together; assay type: cell-based; details: over all strains of Table 3 and Table 4
From the text: as §1
(§3) Antifungal susceptibility testing was performed according to Clinical and Laboratory Standards Institute M27, 4th Edition (CLSI standard M27, 4th Edition). […] MICs were visually determined at the lowest concentration that produced visual inhibition compared to the growth control. […] The results were expressed as geometric means (GM) and ranges. As an antifungal susceptibility testing control, the activity of ITC and AMB against the reference strains C. krusei ATCC 6258 and C. parapsilosis ATCC 22019 was evaluated in all experiments following the CLSI standard M27, 4th Edition. […]

[4] = test system: C. orthopsilosis MUM 17.13; experiment: MIC, CLSI M27 broth microdilution; assay type: cell-based, Candida orthopsilosis; details: C. orthopsilosis MUM 15.12 (Table 3), EOs and terpenes, 24 h, top concentration 256 µg/mL
From the text: as §1, §2

C. auris = experiment: MIC, CLSI M27 broth microdilution, several C. auris strains together; assay type: cell-based, Candida auris; details: over all C. auris strains of Table 4
From the text: as §1, §3

Candida spp. [5] = experiment: Screening of antifungal activity at 256 µg/mL against twenty strains; assay type: cell-based; details: screening at 256 µg/mL
From the text: as §1
Antifungal susceptibility testing was performed according to Clinical and Laboratory Standards Institute M27, 4th Edition (CLSI standard M27, 4th Edition). Some modifications were applied for evaluation of the antifungal activity of EOs and terpenes. Initially, a screening was carried out to determine the antifungal activity of the EOs and of commercial terpenes. Stock concentrations of EOs and terpenes were prepared at 512 µg/mL and an inoculum of 2.5 × 10^3 CFU/mL of each yeast was prepared in RPMI 1640-MOPS (Sigma- Aldrich St. Louis, MO, USA). Thereafter, 100 µL of each stock solution of EOs or terpenes was dispensed in 96-well microdilution plates (Corning®, Costar®, NY, USA) and 100 µL of each yeast inoculum was added. […] MICs were visually determined at the lowest concentration that produced visual inhibition compared to the growth control. […] The results were expressed as geometric means (GM) and ranges. As an antifungal susceptibility testing control, the activity of ITC and AMB against the reference strains C. krusei ATCC 6258 and C. parapsilosis ATCC 22019 was evaluated in all experiments following the CLSI standard M27, 4th Edition. […]

[6] = test system: C. metapsilosis MUM 15.12; experiment: MIC, CLSI M27 broth microdilution; assay type: cell-based, Candida metapsilosis; details: C. metapsilosis MUM 17.13 (Table 3), EOs and terpenes, 24 h, top concentration 256 µg/mL
From the text: as §1, §2

HaCaT cell line = experiment: Cytotoxicity, MTT assay; details: MTT, 24 h treatment, HaCaT keratinocytes
Procedure: (§4) Cells were cultured in Dulbecco’s Modified Eagle Medium (DMEM; Sigma-Aldrich, St. Louis, MO, USA) supplemented with 10% fetal bovine serum (Invitrogen, Carlsbad, CA, USA), 1% penicillin, streptomycin, and neomycin (Invitrogen, Carlsbad, CA, USA), and 1% L-glutamine (Invitrogen, Carlsbad, CA, USA) at 37 °C in a humidified atmosphere of 5% CO2. […] Afterwards, the culture medium was removed and 3-(4.5-dimethylthiazol-2-yl)-2.5-diphenyltetrazolium bromide (MTT) (Sigma-Aldrich, St. Louis, MO, USA) at 5 mg/mL was added at 37 °C for 2 h. Subsequently, DMSO was added to dissolve the formazan crystals. Finally, the absorbances were measured with a Multiskan SkyHigh Microplate Spectrophotometer (Thermo Fisher Scientific, Waltham, MA, USA) at λ = 570 nm. The CC50 values were obtained by linear regression analysis with concentration–response curves, which were performed with absorbance data using GraphPad Prism software (Prism 9.3.0, San Diego, CA, USA). The assays were conducted at two separate times in triplicate. The data were expressed as means.

in vitro = details: human
Procedure: as §4

[7] = 24 h, top concentration 256 µg/mL

SMILES: C=C(C)[C@H]1CC=C(C)CC1 [Limonene, limonene]
GM MIC [1, 7]: 64 µg/mL
Range MIC (C. lusitaniae MUM 17.08): 16 to 32 µg/mL
GM MIC (C. lusitaniae MUM 17.08; [7]): 22.6 µg/mL
GM MIC [2, 7]: 64 µg/mL
GM MIC (C. krusei ATCC 6258): 32 µg/mL
Range MIC (C. auris Ca 13): 16 to 32 µg/mL
GM MIC (C. auris Ca 13; [7]): 22.6 µg/mL
GM MIC (C. auris CDC B11903): 64 µg/mL
GM MIC (C. auris Ca 46): 16 µg/mL
GM MIC (C. auris Ca 17): 64 µg/mL
GM MIC (C. auris Ca 1): 64 µg/mL
GM MIC (C. auris Ca 45): 16 µg/mL
Range MIC (C. auris Ca 9): 16 to 32 µg/mL
GM MIC (C. auris Ca 9; [7]): 22.6 µg/mL
Range MIC (C. auris Ca 32): 16 to 32 µg/mL
GM MIC (C. auris Ca 32; [7]): 22.6 µg/mL
GM MIC (C. auris Ca 41): 16 µg/mL
MIC Range (Candida spp. [3]): 16 to 64 µg/mL
GM MIC [4]: 16 µg/mL
MIC Range (C. auris): 16 to 64 µg/mL
antifungal activity in screening (Candida spp. [5]): active against all tested Candida spp.
GM MIC [6]: 64 µg/mL
HaCaT Cells Mean CC50 (HaCaT cell line): 400.5 µg/mL

Range MIC [1]: 64 to 128 µg/mL
MIC ([1]; Lodderomyces parapsilosis, SYNLAB406, 24 h, top concentration 256 µg/mL, read-out: GM MIC): 90.5 µg/mL (≈ 594 µM)
Range MIC (C. lusitaniae MUM 17.08): 128 to 256 µg/mL
MIC (C. lusitaniae MUM 17.08; Clavispora lusitaniae, MUM17.08, 24 h, top concentration 256 µg/mL, read-out: GM MIC): 181 µg/mL (≈ 1190 µM)
Range MIC [2]: 128 to 256 µg/mL
MIC ([2]; Candida tropicalis, ATCC200956, 24 h, top concentration 256 µg/mL, read-out: GM MIC): 181 µg/mL (≈ 1190 µM)
MIC (C. auris Ca 13; Candidozyma auris, CA13, 24 h, top concentration 256 µg/mL, read-out: GM MIC): 256 µg/mL (≈ 1680 µM)
MIC (C. auris CDC B11903; Candidozyma auris, CDCB11903, read-out: GM MIC): 256 µg/mL (≈ 1680 µM)
MIC (C. auris Ca 46; Candidozyma auris, CA46, read-out: GM MIC): 256 µg/mL (≈ 1680 µM)
MIC (C. auris Ca 17; Candidozyma auris, CA17, read-out: GM MIC): 256 µg/mL (≈ 1680 µM)
MIC (C. auris Ca 1; Candidozyma auris, CA1, read-out: GM MIC): 256 µg/mL (≈ 1680 µM)
MIC (C. auris Ca 45; Candidozyma auris, CA45, read-out: GM MIC): 256 µg/mL (≈ 1680 µM)
MIC (C. auris Ca 9; Candidozyma auris, CA9, 24 h, top concentration 256 µg/mL, read-out: GM MIC): 128 µg/mL (≈ 841 µM)
MIC (C. auris Ca 32; Candidozyma auris, CA32, 24 h, top concentration 256 µg/mL, read-out: GM MIC): 128 µg/mL (≈ 841 µM)
MIC (C. auris Ca 41; Candidozyma auris, CA41, read-out: GM MIC): 128 µg/mL (≈ 841 µM)
MIC ([4]; Lodderomyces orthopsilosis, MUM17.13, read-out: GM MIC): 256 µg/mL (≈ 1680 µM)
MIC ([6]; Lodderomyces metapsilosis, MUM15.12, read-out: GM MIC): 256 µg/mL (≈ 1680 µM)
SMILES: C=C(C)[C@@H]1CC=C(CO)CC1 [Perillyl alcohol, perillyl alcohol]
CC50 at 24 h (in vitro): 401 µg/mL (≈ 2630 µM)
